Values quoted from earlier work in patent US20160346267A1, “Pharmaceutical Composition Comprising Apixaban” (SANDOZ AG, priority 2014, published 2016).

COc1ccc(-n2nc(C(N)=O)c3c2C(=O)N(c2ccc(N4CCCCC4=O)cc2)CC3)cc1 [Apixaban, 1-(4-methoxyphenyl)-7-oxo-6-(4-(2-oxopiperidin-1-yl)phenyl)-4,5,6,7-tetrahydro-1H-pyrazolo[3,4-c]pyridine-3-carboxamide]
solubility: poorly soluble
